Laboratory results: patent US20100048597A1 (Novartis AG, priority 2006, published 2010)

How the values were obtained:
CDK9/cyclinT1 = biological target: T1, CDK9/cyclinT1 (Homo sapiens, UniProt P50750); experiment: CDK9/cyclinT1 kinase assay, IMAP fluorescence polarization; type: biochemical
T1 construct: purchased Millipore
Description: (§1) Kinase assays were performed on recombinant purified enzymes using the non-radioactive IMAP fluorescence polarization assay format.
(§2) Compound stocks were prepared and diluted in DMSO and were added to kinase reactions at a 1/100 dilution for a final concentration of 1% DMSO. The components were added together to final concentrations listed in the tables below and incubated for two hours at room temperature.
(§3) The reactions were stopped by addition of stop solution.
CDK9/CDK1/CDK7: final stop concentration is 1× Developer buffer (85% A/15% B), IMAP beads 1/400
The samples were allowed to incubate for one more hour at room temperature and then the fluorescence polarization was measured. The plate normalized millipolarization (mP) values were plotted against the log of compound concentration for each compound and IC50 values were calculated using the spotfire IC50 calculator and confirmed by visual analysis.

CDK1/cyclinB = biological target: T2, CDK1/cyclinB (Homo sapiens, UniProt P06493); experiment: CDK1/cyclinB kinase assay, IMAP fluorescence polarization; type: biochemical; settings: read-out: CDK1 IC50
T2 construct: purchased Millipore
Description: as §1, §2, §3
The samples were allowed to incubate for one more hour at room temperature and then the fluorescence polarization was measured.

T1 sequence (P50750 whole entry): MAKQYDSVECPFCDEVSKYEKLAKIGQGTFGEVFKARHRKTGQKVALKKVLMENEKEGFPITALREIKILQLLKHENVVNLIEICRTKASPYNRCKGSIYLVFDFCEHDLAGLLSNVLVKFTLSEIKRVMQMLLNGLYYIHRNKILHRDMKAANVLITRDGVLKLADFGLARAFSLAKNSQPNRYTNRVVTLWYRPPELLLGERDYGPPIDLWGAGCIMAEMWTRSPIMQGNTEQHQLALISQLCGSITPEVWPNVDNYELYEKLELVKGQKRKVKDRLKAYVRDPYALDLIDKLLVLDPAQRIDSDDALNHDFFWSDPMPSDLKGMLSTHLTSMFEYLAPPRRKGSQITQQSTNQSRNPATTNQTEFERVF
T1 sequence (O60563 whole entry partner): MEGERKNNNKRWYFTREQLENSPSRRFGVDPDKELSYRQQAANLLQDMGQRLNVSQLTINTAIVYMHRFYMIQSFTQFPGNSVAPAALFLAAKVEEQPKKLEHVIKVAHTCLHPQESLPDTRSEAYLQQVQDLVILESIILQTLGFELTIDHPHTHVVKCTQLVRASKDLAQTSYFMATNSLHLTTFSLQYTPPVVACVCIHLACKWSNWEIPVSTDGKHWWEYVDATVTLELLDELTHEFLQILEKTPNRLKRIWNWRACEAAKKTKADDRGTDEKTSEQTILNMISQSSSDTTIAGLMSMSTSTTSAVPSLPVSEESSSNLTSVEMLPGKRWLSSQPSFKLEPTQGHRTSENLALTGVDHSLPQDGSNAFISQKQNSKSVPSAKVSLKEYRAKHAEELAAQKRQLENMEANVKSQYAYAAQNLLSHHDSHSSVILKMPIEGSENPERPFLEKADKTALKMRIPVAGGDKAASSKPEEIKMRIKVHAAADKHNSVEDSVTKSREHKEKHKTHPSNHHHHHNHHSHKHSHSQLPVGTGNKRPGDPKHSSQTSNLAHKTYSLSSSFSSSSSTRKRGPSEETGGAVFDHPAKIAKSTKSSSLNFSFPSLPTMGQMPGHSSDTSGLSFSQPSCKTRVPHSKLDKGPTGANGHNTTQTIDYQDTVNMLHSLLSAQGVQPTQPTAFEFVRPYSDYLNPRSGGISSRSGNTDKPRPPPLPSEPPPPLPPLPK
T2 sequence (P06493 whole entry): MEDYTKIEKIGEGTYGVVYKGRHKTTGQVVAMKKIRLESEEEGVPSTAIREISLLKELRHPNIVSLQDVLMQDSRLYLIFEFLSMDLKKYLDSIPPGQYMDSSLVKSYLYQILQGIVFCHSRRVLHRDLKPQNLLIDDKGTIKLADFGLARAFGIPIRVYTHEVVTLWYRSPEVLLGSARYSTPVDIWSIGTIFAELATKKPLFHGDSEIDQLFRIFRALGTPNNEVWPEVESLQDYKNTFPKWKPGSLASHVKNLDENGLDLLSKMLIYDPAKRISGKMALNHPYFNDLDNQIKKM
T2 sequence (P14635 whole entry partner): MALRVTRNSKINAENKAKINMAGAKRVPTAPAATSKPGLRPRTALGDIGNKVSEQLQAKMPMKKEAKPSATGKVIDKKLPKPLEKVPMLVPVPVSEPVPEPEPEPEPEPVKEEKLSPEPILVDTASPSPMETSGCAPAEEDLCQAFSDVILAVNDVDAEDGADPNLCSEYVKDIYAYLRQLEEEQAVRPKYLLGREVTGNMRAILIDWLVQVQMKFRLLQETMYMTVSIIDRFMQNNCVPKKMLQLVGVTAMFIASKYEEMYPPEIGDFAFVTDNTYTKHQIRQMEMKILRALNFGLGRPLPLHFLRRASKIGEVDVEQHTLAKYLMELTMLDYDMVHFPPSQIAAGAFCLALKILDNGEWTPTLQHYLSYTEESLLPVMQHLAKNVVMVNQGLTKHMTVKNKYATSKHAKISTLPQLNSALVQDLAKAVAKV

For `Cc1c(-c2ccnc(Nc3cccc(Cl)c3)n2)ccnc1NCCCN` [Compound 4, N-{4-[2-(3-Chloro-phenylamino)-pyrimidin-4-yl]-3-methyl-pyridin-2-yl}-propane-1,3-diamine], the IC50 (CDK9/cyclinT1) was < 5 µM and the IC50 (CDK1/cyclinB) was < 5 µM.
For `CCc1c(-c2ccnc(Nc3cccc(Cl)c3)n2)ccnc1NCCCN` [Compound 5, N-{4-[2-(3-Chloro-phenylamino)-pyrimidin-4-yl]-3-ethyl-pyridin-2-yl}-propane-1,3-diamine], the IC50 (CDK9/cyclinT1) was < 5 µM and the IC50 (CDK1/cyclinB) was < 5 µM.
`CCc1c(-c2ccnc(Nc3cccc(Cl)c3)n2)ccnc1NCCCNC(C)=O` [Compound 7, N-(3-{4-[2-(3-Chloro-phenylamino)-pyrimidin-4-yl]-3-ethyl-pyridin-2-ylamino}-propyl)-acetamide] was tested, and the IC50 (CDK9/cyclinT1) was < 5 µM and the IC50 (CDK1/cyclinB) was < 5 µM.
With `Cc1c(-c2ccnc(N(C)c3cccc(Cl)c3)n2)ccnc1NCCCN` [Compound 8, N-(4-{2-[(3-Chloro-phenyl)-methyl-amino]-pyrimidin-4-yl}-3-methyl-pyridin-2-yl)-propane-1,3-diamine] the IC50 (CDK9/cyclinT1) was 5 to 15 µM and the IC50 (CDK1/cyclinB) was 15 to 50 µM.
With `CNCCCN(C)c1nccc(-c2ccnc(Nc3cccc(Cl)c3)n2)c1C` [Compound 9, N-{4-[2-(3-Chloro-phenylamino)-pyrimidin-4-yl]-3-methyl-pyridin-2-yl}-N,N′-dimethyl-propane-1,3-diamine] the IC50 (CDK9/cyclinT1) was < 5 µM and the IC50 (CDK1/cyclinB) was < 5 µM.
`CC(=O)N(C)CCCN(C)c1nccc(-c2ccnc(Nc3cccc(Cl)c3)n2)c1C` [Compound 10, N-[3-({4-[2-(3-Chloro-phenylamino)-pyrimidin-4-yl]-3-methyl-pyridin-2-yl}-methyl-amino)-propyl]-N-methyl-acetamide] was tested, and the IC50 (CDK9/cyclinT1) was < 5 µM and the IC50 (CDK1/cyclinB) was 5 to 15 µM.
In the case of `CNCCCN(C)c1nccc(-c2ccnc(N(C)c3cccc(Cl)c3)n2)c1C` [Compound 11, N-(4-{2-[(3-Chloro-phenyl)-methyl-amino]-pyrimidin-4-yl}-3-methyl-pyridin-2-yl)-N,N′-dimethyl-propane-1,3-diamine], the IC50 (CDK9/cyclinT1) is reported as > 50 µM and the IC50 (CDK1/cyclinB) is reported as 15 to 50 µM.
`CC(=O)NCCCNc1nccc(-c2ccnc(N(C)c3cccc(Cl)c3)n2)c1C` [Compound 13, N-[3-(4-{2-[(3-Chloro-phenyl)-methyl-amino]-pyrimidin-4-yl}-3-methyl-pyridin-2-ylamino)-propyl]-acetamide] was tested, and the IC50 (CDK9/cyclinT1) was > 50 µM and the IC50 (CDK1/cyclinB) was > 50 µM.
`CC(=O)NCCCNc1nccc(-c2ccnc(Nc3cccc(CNC(C)=O)c3)n2)c1C` [Compound 15, N-[3-(4-{2-[3-(Acetylamino-methyl)-phenylamino]-pyrimidin-4-yl}-3-methyl-pyridin-2-ylamino)-propyl]-acetamide] was tested, and the IC50 (CDK9/cyclinT1) was < 5 µM and the IC50 (CDK1/cyclinB) was > 50 µM.
In the case of `Cc1c(-c2ccnc(Nc3cccc(Cl)c3)n2)ccnc1NCCCO` [Compound 17, 3-{4-[2-(3-Chloro-phenylamino)-pyrimidin-4-yl]-3-methyl-pyridin-2-ylamino}-propan-1-ol], the IC50 (CDK9/cyclinT1) is reported as < 5 µM and the IC50 (CDK1/cyclinB) is reported as < 5 µM.
For `CC(=O)OCCCNc1nccc(-c2ccnc(Nc3cccc(Cl)c3)n2)c1C` [Compound 19, Acetic acid 3-{4-[2-(3-chloro-phenylamino)-pyrimidin-4-yl]-3-methyl-pyridin-2-ylamino}-propyl ester], the IC50 (CDK9/cyclinT1) was < 5 µM and the IC50 (CDK1/cyclinB) was 5 to 15 µM.
In the case of `Cc1c(-c2ccnc(Nc3cccc(Cl)c3)n2)ccnc1NCCC(=O)O` [Compound 20, 3-{4-[2-(3-Chloro-phenylamino)-pyrimidin-4-yl]-3-methyl-pyridin-2-ylamino}-propionic acid], the IC50 (CDK9/cyclinT1) is reported as < 5 µM and the IC50 (CDK1/cyclinB) is reported as 5 to 15 µM.
`Cc1c(-c2ccnc(Nc3cccc(Cl)c3)n2)ccnc1NCCCNc1ccc(CN)cc1` [Compound 27, N-(4-Aminomethyl-phenyl)-N′-{4-[2-(3-chloro-phenylamino)-pyrimidin-4-yl]-3-methyl-pyridin-2-yl}-propane-1,3-diamine] was tested, and the IC50 (CDK9/cyclinT1) was < 5 µM and the IC50 (CDK1/cyclinB) was 5 to 15 µM.
For `CC(=O)NCc1ccc(NCCCNc2nccc(-c3ccnc(Nc4cccc(Cl)c4)n3)c2C)cc1` [Compound 28, N-[4-(3-{4-[2-(3-Chloro-phenylamino)-pyrimidin-4-yl]-3-methyl-pyridin-2-ylamino}-propylamino)-benzyl]-acetamide], the IC50 (CDK9/cyclinT1) was < 5 µM and the IC50 (CDK1/cyclinB) was 15 to 50 µM.
For `Cc1cnc(Nc2cccc(Cl)c2)nc1-c1ccnc(NCCCN)c1` [Compound 31, N-{4-[2-(3-Chloro-phenylamino)-5-methyl-pyrimidin-4-yl]-pyridin-2-yl}-propane-1,3-diamine], the IC50 (CDK9/cyclinT1) was < 5 µM and the IC50 (CDK1/cyclinB) was < 5 µM.
With `Cc1cc(-c2ccnc(NCCCN)c2)nc(Nc2cccc(Cl)c2)n1` [Compound 33, N-{4-[2-(3-Chloro-phenylamino)-6-methyl-pyrimidin-4-yl]-pyridin-2-yl}-propane-1,3-diamine] the IC50 (CDK9/cyclinT1) was 15 to 50 µM and the IC50 (CDK1/cyclinB) was > 50 µM.
For `CC(=O)NCCCNc1cc(-c2cc(C)nc(Nc3cccc(Cl)c3)n2)ccn1` [Compound 34, N-(3-{4-[2-(3-Chloro-phenylamino)-6-methyl-pyrimidin-4-yl]-pyridin-2-ylamino}-propyl)-acetamide], the IC50 (CDK9/cyclinT1) was < 5 µM and the IC50 (CDK1/cyclinB) was < 5 µM.
With `NCCCNc1cc2c(cn1)CCc1cnc(Nc3cccc(Cl)c3)nc1-2` [Compound 35, N-(3-Amino-propyl)-N-(3-chloro-phenyl)-9,10-dihydro-2,4,7-triaza-phenanthrene-3,6-diamine] the IC50 (CDK9/cyclinT1) was < 5 µM and the IC50 (CDK1/cyclinB) was < 5 µM.
`CC(=O)NCCCNc1cc2c(cn1)CCc1cnc(Nc3cccc(Cl)c3)nc1-2` [Compound 36, N-{3-[3-(3-Chloro-phenylamino)-9,10-dihydro-2,4,7-triaza-phenanthren-6-ylamino]-propyl}-acetamide] was tested, and the IC50 (CDK9/cyclinT1) was < 5 µM and the IC50 (CDK1/cyclinB) was < 5 µM.
With `CC(=O)NCCCNc1nccc2c1CCc1cnc(Nc3cccc(Cl)c3)nc1-2` [Compound 38, N-{3-[3-(3-Chloro-phenylamino)-9,10-dihydro-2,4,7-triaza-phenanthren-8-ylamino]-propyl}-acetamide] the IC50 (CDK9/cyclinT1) was < 5 µM and the IC50 (CDK1/cyclinB) was 5 to 15 µM.
For `Cc1cnc(NCCCN)cc1-c1ccnc(Nc2cccc(Cl)c2)n1` [Compound 39, N-{4-[2-(3-Chloro-phenylamino)-pyrimidin-4-yl]-5-methyl-pyridin-2-yl}-propane-1,3-diamine], the IC50 (CDK9/cyclinT1) was < 5 µM and the IC50 (CDK1/cyclinB) was < 5 µM.
With `CC(=O)NCCCNc1cc(-c2ccnc(Nc3cccc(Cl)c3)n2)c(C)cn1` [Compound 40, N-(3-{4-[2-(3-Chloro-phenylamino)-pyrimidin-4-yl]-5-methyl-pyridin-2-ylamino}-propyl)-acetamide] the IC50 (CDK9/cyclinT1) was < 5 µM and the IC50 (CDK1/cyclinB) was 15 to 50 µM.
For `Cc1cc(-c2ccnc(Nc3cccc(Cl)c3)n2)cc(NCCCN)n1` [Compound 41, N-{4-[2-(3-Chloro-phenylamino)-pyrimidin-4-yl]-6-methyl-pyridin-2-yl}-propane-1,3-diamine], the IC50 (CDK9/cyclinT1) was < 5 µM and the IC50 (CDK1/cyclinB) was < 5 µM.
`Clc1cccc(Nc2nccc(-c3cccnc3Cl)n2)c1` [Compound 43, (3-Chloro-phenyl)-[4-(2-chloro-pyridin-3-yl)-pyrimidin-2-yl]-amine] was tested, and the IC50 (CDK9/cyclinT1) was < 5 µM and the IC50 (CDK1/cyclinB) was < 5 µM.
In the case of `CS(=O)(=O)c1cccc(Nc2nccc(-c3cccnc3Nc3cccc(S(C)(=O)=O)c3)n2)c1` [Compound 51, (3-Methanesulfonyl-phenyl)-{4-[2-(3-methanesulfonyl-phenylamino)-pyridin-3-yl]-pyrimidin-2-yl}-amine], the IC50 (CDK9/cyclinT1) is reported as < 5 µM and the IC50 (CDK1/cyclinB) is reported as < 5 µM.
For `COc1ncccc1-c1ccnc(N)n1` [Compound 86, 4-(2-Methoxy-pyridin-3-yl)-pyrimidin-2-ylamine], the IC50 (CDK9/cyclinT1) was 15 to 50 µM and the IC50 (CDK1/cyclinB) was > 50 µM.
